From patent US11358936B2, “Lysyl oxidase-like 2 inhibitors and uses thereof” (PharmAkea, Inc., priority 2015, dated 2022) come the findings set out here.

Where a name gives a salt, the structure may show the parent alone.

Sequence of human LOXL2 (Q9Y4K0 26-774): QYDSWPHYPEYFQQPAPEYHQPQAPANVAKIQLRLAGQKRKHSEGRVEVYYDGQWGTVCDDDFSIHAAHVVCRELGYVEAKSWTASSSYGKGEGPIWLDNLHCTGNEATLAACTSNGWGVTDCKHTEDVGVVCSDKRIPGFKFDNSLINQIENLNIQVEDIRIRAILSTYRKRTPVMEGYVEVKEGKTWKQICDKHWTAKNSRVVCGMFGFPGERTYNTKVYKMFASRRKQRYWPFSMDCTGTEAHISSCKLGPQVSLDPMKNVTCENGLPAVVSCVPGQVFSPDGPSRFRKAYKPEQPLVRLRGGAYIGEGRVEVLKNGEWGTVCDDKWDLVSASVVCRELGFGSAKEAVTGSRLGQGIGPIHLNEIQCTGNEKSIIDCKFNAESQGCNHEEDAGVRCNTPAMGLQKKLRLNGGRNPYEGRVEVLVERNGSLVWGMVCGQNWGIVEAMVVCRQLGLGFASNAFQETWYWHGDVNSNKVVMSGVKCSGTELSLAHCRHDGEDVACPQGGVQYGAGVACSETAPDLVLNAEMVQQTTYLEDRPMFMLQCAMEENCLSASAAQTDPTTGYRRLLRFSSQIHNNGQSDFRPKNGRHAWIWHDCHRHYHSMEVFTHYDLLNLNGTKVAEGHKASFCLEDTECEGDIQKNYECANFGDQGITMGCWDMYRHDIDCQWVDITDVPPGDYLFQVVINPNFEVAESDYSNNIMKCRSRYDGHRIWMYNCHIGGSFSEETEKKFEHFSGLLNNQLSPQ

The assay addresses human LOXL2 (Homo sapiens (Human), UniProt Q9Y4K0). In words: Human LOXL2 Amine Oxidase Activity Assay (Amplex Red fluorescence). It is filed as biochemical. As to conditions: concentrated conditioned media from CHO cells stably expressing human LOXL2; 2 h at 37° C. preincubation; DAP substrate; read-out: IC50. How it is done: LOXL2 amine oxidase activity is evaluated by measuring Amplex Red fluorescence using 10-20× concentrated conditioned media from CHO cells stably expressing human LOXL2. To assay for amine oxidase activity, 10 μL of the concentrated conditioned media is incubated with 2 μL of test compound in DMSO and 73 μL Assay Buffer (50 mM Borate Buffer, pH8) for 2 h at 37° C. After the 2 h incubation, 5 μl of 10 mM 1,5-Diaminopentane (DAP) diluted in Assay Buffer and 10 μl of Amplex Red Mix (8.5 μl Assay Buffer+0.5 μl of 10 mM Amplex Red+1 μl of 500 U/ml Horseradish Peroxidase) are added and the plate mixed and immediately placed on the FlexStaion for fluorescence measurements. Fluorescence is read in kinetic mode every 2 min for 1 hour at excitation=544 and emission=590. The amine oxidase activity is calculated from the slope of the linear portion of the curve.
Broadly, the IC50 is the concentration at which inhibition is half-maximal. For `NCc1ccnc(-c2ccc(C(=O)N3CCC(O)(C(F)(F)F)C3)cc2)c1` (racemic) [Compound 1-2, Racemic-(4-(4-(aminomethyl)pyridin-2-yl)phenyl)(3-hydroxy-3-(trifluoromethyl)pyrrolidin-1-yl)methanone hydrochloride], the IC50 is less than 300 nM.

Turning to `NCc1ccnc(-c2cccc(C(=O)N3CCC(O)(C(F)(F)F)C3)c2)c1` (racemic) [Compound 1-6, Racemic-(3-(4-(aminomethyl)pyridin-2-yl)phenyl)(3-hydroxy-3-(trifluoromethyl)pyrrolidin-1-yl)methanone hydrochloride], the IC50 was less than 300 nM. Consider `NCc1ccnc(Oc2ccc(C(=O)N3CCC(O)(C(F)(F)F)C3)cc2)c1` (racemic) [Compound 1-12, Racemic-4-((4-aminomethyl)pyridin-2-yl)oxy)phenyl)(3-hydroxy-3-(trifluoromethyl)pyrrolidin-1-yl)methanone hydrochloride], for which the IC50 is less than 300 nM. Then `NCc1ccnc(Oc2cccc(C(=O)N3CCC(O)(C(F)(F)F)C3)c2)c1` (racemic) [Compound 1-16, Racemic-(3-((4-(aminomethyl)pyridin-2-yl)oxy)phenyl)(3-hydroxy-3-(trifluoromethyl)pyrrolidin-1-yl)methanone hydrochloride], with less than 300 nM; and `NCc1ccnc(N2C[C@@H](O)[C@H](F)C2)c1` (racemic) [Compound 2-1], with more than 1000 nM. Then `NCc1ccnc(N2CCC(O)(C(F)(F)F)C2)c1` (racemic) [Compound 2-2, Racemic-1-(4-(Aminomethyl)pyridin-2-yl)-3-(trifluoromethyl)pyrrolidin-3-ol], with more than 1000 nM; and `NCc1ccnc(C(=O)N2CCC(O)(C(F)(F)F)C2)c1` (racemic) [Compound 2-40, Racemic-(4-(aminomethyl)pyridin-2-yl)(3-hydroxy-3-(trifluoromethyl)pyrrolidin-1-yl)methanone hydrochloride], with less than 300 nM. Then `NCc1ccnc(Oc2cccc3c2ccn3CC(=O)N2CCCC(O)(C(F)(F)F)C2)c1` (single isomer, unassigned) [Compound 2-28, (R) or (S)-2-(4-((4-(Aminomethyl)pyridin-2-yl)oxy)-1H-indol-1-yl)-1-(3-hydroxy-3-(trifluoromethyl)piperidin-1-yl)ethan-1-one hydrochloride], with less than 300 nM; and `NCc1ccnc(Oc2cccc3c2ccn3CC(=O)N2CCCC(O)(C(F)(F)F)C2)c1` (single isomer, unassigned) [Compound 2-29, (R) or (S)-2-(4-((4-(aminomethyl)pyridin-2-yl)oxy)-1H-indol-1-yl)-1-(3-hydroxy-3-(trifluoromethyl)piperidin-1-yl)ethan-1-one hydrochloride], with 300 to 1000 nM; and `COCCNC(=O)c1ccc(-c2cc(CN)ccn2)cc1` [Compound 1-1, 4-(4-(Aminomethyl)pyridin-2-yl)-N-(2-methoxyethyl)benzamide hydrochloride], with less than 300 nM. With `NCc1ccnc(-c2ccc(C(=O)Nc3ccccc3)cc2)c1` [Compound 1-3, 4-(4-(Aminomethyl)pyridin-2-yl)-N-phenylbenzamide hydrochloride], the IC50 was less than 300 nM. On to `NCc1ccnc(-c2ccc(C(=O)NCc3ccccc3)cc2)c1` [Compound 1-4, 4-(4-(Aminomethyl)pyridin-2-yl)-N-benzylbenzamide hydrochloride], for which the IC50 was less than 300 nM. Then `COCCNC(=O)c1cccc(-c2cc(CN)ccn2)c1` [Compound 1-5, 3-(4-(Aminomethyl)pyridin-2-yl)-N-(2-methoxyethyl)benzamide hydrochloride], with less than 300 nM.

For `NCc1ccnc(-c2cccc(C(=O)Nc3ccccc3)c2)c1` [Compound 1-7, 3-(4-(Aminomethyl)pyridin-2-yl)-N-phenylbenzamide hydrochloride], the IC50 was less than 300 nM. As for `NCc1ccnc(-c2cccc(C(=O)NCc3ccccc3)c2)c1` [Compound 1-8, 3-(4-(Aminomethyl)pyridin-2-yl)-N-benzylbenzamide hydrochloride], the figure is less than 300 nM; as for `Cc1ccc(Cl)cc1NC(=O)c1cccc(-c2cc(CN)ccn2)c1` [Compound 1-9, 3-(4-(Aminomethyl)pyridin-2-yl)-N-(5-chloro-2-methylphenyl)benzamide hydrochloride], less than 300 nM; as for `NCc1ccnc(-c2cccc(C(=O)Nc3cc(Cl)cc4[nH]ccc34)c2)c1` [Compound 1-10, 3-(4-(Aminomethyl)pyridin-2-yl)-N-(6-chloro-1H-indol-4-yl)benzamide hydrochloride], less than 300 nM. With `COCCNC(=O)c1ccc(Oc2cc(CN)ccn2)cc1` [Compound 1-11, 4-((4-(Aminomethyl)pyridin-2-yl)oxy)-N-(2-methoxyethyl)benzamide hydrochloride], the IC50 lay in the range of 300 to 1000 nM. Then `NCc1ccnc(Oc2ccc(C(=O)Nc3ccccc3)cc2)c1` [Compound 1-13, 4-((4-(Aminomethyl)pyridin-2-yl)oxy)-N-phenylbenzamide hydrochloride], with less than 300 nM; and `NCc1ccnc(Oc2ccc(C(=O)NCc3ccccc3)cc2)c1` [Compound 1-14, 4-((4-(Aminomethyl)pyridin-2-yl)oxy)-N-benzylbenzamide hydrochloride], with less than 300 nM; and `COCCNC(=O)c1cccc(Oc2cc(CN)ccn2)c1` [Compound 1-15, 3-((4-(Aminomethyl)pyridin-2-yl)oxy)-N-(2-methoxyethyl)benzamide hydrochloride], with less than 300 nM.

For the molecule `NCc1ccnc(Oc2cccc(C(=O)Nc3ccccc3)c2)c1` [Compound 1-17, 3-((4-(Aminomethyl)pyridin-2-yl)oxy)-N-phenylbenzamide hydrochloride], the IC50 is less than 300 nM. Then `NCc1ccnc(Oc2cccc(C(=O)NCc3ccccc3)c2)c1` [Compound 1-18, 3-((4-Aminomethyl)pyridin-2-yl)oxy)-N-benzylbenzamide hydrochloride], with less than 300 nM; and `COc1cccc(NC(=O)c2cccc(Oc3cc(CN)ccn3)c2)c1` [Compound 1-19, 3-((4-(Aminomethyl)pyridin-2-yl)oxy)-N-(3-methoxyphenyl)benzamide hydrochloride], with less than 300 nM. Then `COc1ccc(NC(=O)c2cccc(Oc3cc(CN)ccn3)c2)cc1` [Compound 1-20, 3-((4-Aminomethyl)pyridin-2-yl)oxy)-N-(4-methoxyphenyl)benzamide hydrochloride], with less than 300 nM. As for `NCc1ccnc(Oc2cccc(C(=O)Nc3cccc(C(F)(F)F)c3)c2)c1` [Compound 1-21, 3-((4-Aminomethyl)pyridin-2-yl)oxy)-N-(3-(trifluoromethyl)phenyl)benzamide hydrochloride], the figure is less than 300 nM. Regarding `NCc1ccnc(Oc2cccc(C(=O)Nc3ccc(C(F)(F)F)cc3)c2)c1` [Compound 1-22, 3-((4-(Aminomethyl)pyridin-2-yl)oxy)-N-(4-(trifluoromethyl)phenyl)benzamide hydrochloride], the 50% inhibitory concentration (IC50) is less than 300 nM. As for `NCc1ccnc(Oc2cccc(C(=O)Nc3ccc(F)cc3)c2)c1` [Compound 1-23, 3-((4-Aminomethyl)pyridin-2-yl)oxy)-N-(4-fluorophenyl)benzamide hydrochloride], the figure is less than 300 nM; as for `NCc1ccnc(Oc2cccc(C(=O)Nc3ccc(F)cc3F)c2)c1` [Compound 1-24, 3-((4-Aminomethyl)pyridin-2-yl)oxy)-N-(2,4-difluorophenyl)benzamide hydrochloride], less than 300 nM. As for `NCc1ccnc(Oc2cccc(C(=O)Nc3ccc(Br)cc3)c2)c1` [Compound 1-25, 3-((4-(Aminomethyl)pyridin-2-yl)oxy)-N-(4-bromophenyl)benzamide hydrochloride], the figure is less than 300 nM. Then `COC(=O)c1ccc(NC(=O)c2cccc(Oc3cc(CN)ccn3)c2)cc1` [Compound 1-26, Methyl 4-(3-((4-(amindimethyl)pyridin-2-yl)oxy)benzamido)benzoate hydrochloride], with less than 300 nM; and `CCOC(=O)c1cccc(NC(=O)c2cccc(Oc3cc(CN)ccn3)c2)c1` [Compound 1-27, Ethyl 3-(3-((4-(aminomethyl)pyridin-2-yl)oxy)benzamido)benzoate hydrochloride], with less than 300 nM; and `NCc1ccnc(Oc2cccc(C(=O)Nc3cccc(C(=O)O)c3)c2)c1` [Compound 1-28, 3-(3-((4-(Aminomethyl)pyridin-2-yl)oxy)benzamido)benzoic acid hydrochloride], with less than 300 nM. As to `NCc1ccnc(Oc2cccc(C(=O)Nc3ccc(C(=O)O)cc3)c2)c1` [Compound 1-29, 4-(3-((4-(Aminomethyl)pyridin-2-yl)oxy)benzamido)benzoic acid hydrochloride], the IC50 was less than 300 nM.

For `NCc1ccnc(Oc2cccc(C(=O)NCc3ccc(F)cc3F)c2)c1` [Compound 1-30, 3-((4-(Aminomethyl)pyridin-2-yl)oxy)-N-(2,4-difluorobenzyl)benzamide hydrochloride], the IC50 is less than 300 nM. As for `NCc1ccnc(Oc2cccc(C(=O)NCc3ccc(C(F)(F)F)cc3)c2)c1` [Compound 1-31, 3-((4-(Aminomethyl)pyridin-2-yl)oxy)-N-(4-(trifluoromethyl)benzyl)benzamide hydrochloride], the figure is less than 300 nM; as for `NCc1ccnc(Oc2cccc(C(=O)NCc3ccc(Br)cc3)c2)c1` [Compound 1-32, 3-((4-(Aminomethyl)pyridin-2-yl)oxy)-yl)-(4-bromobenzyl)benzamide hydrochloride], less than 300 nM.
